Measured values taken from publication PMC1481600 (AIDS Research and Therapy, 2006).
pEC50: −log10 of the molar value. Read-outs that look alike come from different tables or passages of the source. Non-standard residues stand in square brackets, D forms with d. Residues, ends and D or L forms follow the SMILES beside them. Groups on a side chain read outwards from the residue. *: point of attachment. Biotin = O=C1N[C@H]2[C@H](CS[C@H]2CCCCC(=O)*)N1; Ahx = NCCCCCC(=O)O

Columns and labels:
[1] = parameters: method as in PMID 15546199; settings: PBS pH 7.4, 37°C; cited from earlier work
[2] = parameters: method as in PMID 15546199; settings: spiked plasma, 37°C; cited from earlier work
[3] = system: HIV-1 strain LAV-Vbu3; test: microbe, parasite or virus in culture; settings: Human immunodeficiency virus 1, MT2, 120 h, read-out: EC50 (anti-HIV activity)
[4] = in vitro; settings: human
[5] = system: HIV-1 strain LAV-Vbu3

| Compound | CC50 [4] | anti-HIV potency relative to L-Tat9 (times more potent) ([5]; MT-2 cells infected with HIV-1) | pEC50 ([5]; strain LAV-Vbu3) | Therapeutic Index (LC50/EC50) ([5]; strain LAV-Vbu3) | other results |
| --- | --- | --- | --- | --- | --- |
| CC(C)(C)NC(=O)[C@@H]1C[C@@H]2CCCC[C@@H]2CN1C[C@@H](OC(=O)C(N)CS)[C@H](Cc1ccccc1)NC(=O)[C@H](CC(N)=O)NC(=O)c1ccc2ccccc2c1 (stereo partly shown) [SQV-Cys ester] | – | – | – | – | half-life of release of active SQV (ester bond) [1]: 14 h; half-life of release of active SQV (ester bond) [2]: 0.9 h |
| CC(C)(C)NC(=O)[C@@H]1C[C@@H]2CCCC[C@@H]2CN1C[C@@H](O)[C@H](Cc1ccccc1)NC(=O)[C@H](CC(N)=O)NC(=O)c1ccc2ccccc2n1 [SQV(MeSO3H) (control), saquinavir, reference compound] | – | – | – | – | pEC50 [3]: 7.82; CC50 at 5 days [4]: 25 µM; Therapeutic Index (LC50/EC50) ([5]; MT-2 cells, LC50 in uninfected cells / EC50 in infected cells): 1667 |
| CC(=O)N[C@H](CS)C(=O)N[C@H](CCCCN)C(=O)N[C@H](CCCNC(=N)N)C(=O)N[C@H](CCCNC(=N)N)C(=O)N[C@H](CCCNC(=N)N)C(=O)N[C@H](CCC(N)=O)C(=O)N[C@H](CCCNC(=N)N)C(=O)N[C@H](CCCNC(=N)N)C(=O)N[C@H](CCCCN)C(=O)N[C@H](CCCCN)C(=O)N[C@H](CCCNC(=N)N)C(N)=O [R.I.CK-Tat9, N-acetyl-ckrrrqrrkkr-NH2] (Ac-[dC][dK][dR][dR][dR][dQ][dR][dR][dK][dK][dR]-NH2) | 29.8 µM | 60 fold | 6.07 | 35 | – |
| CC(=O)N[C@H](CS)C(=O)N[C@H](CCCCNC(=O)CCCCCNC(=O)CCCC[C@@H]1SC[C@@H]2NC(=O)N[C@@H]21)C(=O)N[C@H](CCCNC(=N)N)C(=O)N[C@H](CCCNC(=N)N)C(=O)N[C@H](CCCNC(=N)N)C(=O)N[C@H](CCC(N)=O)C(=O)N[C@H](CCCNC(=N)N)C(=O)N[C@H](CCCNC(=N)N)C(=O)N[C@H](CCCCN)C(=O)N[C@H](CCCCN)C(=O)N[C@H](CCCNC(=N)N)C(N)=O [R.I.CK(biotin)-Tat9] (Ac-[dC][dK]([Ahx-Biotin])[dR][dR][dR][dQ][dR][dR][dK][dK][dR]-NH2) | 46.8 µM | 2850 fold | 7.74 | 2600 | anti-HIV potency relative to RI-Tat9 (times more potent) ([5]; MT-2 cells infected with HIV-1): 47 fold; R (ratio of the EC50 of the bioconjugate to that of its parent drug R.I.CK-Tat9 or SQV) ([5]; MT-2 cells, HIV-1 LAV-Vbu3, MOI 0.01): 0.02 |
| CC(=O)N[C@@H](CCCNC(=N)N)C(=O)N[C@@H](CCCCN)C(=O)N[C@@H](CCCCN)C(=O)N[C@@H](CCCNC(=N)N)C(=O)N[C@@H](CCCNC(=N)N)C(=O)N[C@@H](CCC(N)=O)C(=O)N[C@@H](CCCNC(=N)N)C(=O)N[C@@H](CCCNC(=N)N)C(=O)N[C@@H](CCCNC(=N)N)C(N)=O [L-Tat9, reference compound] | 53.8 µM | – | – | 1 | Therapeutic Index (LC50/EC50) ([5]; listed as L-form of Tat9): poorest therapeutic index; pEC50 ([5]; read-out: EC50 (anti-HIV activity), MT-2 cells infected with HIV-1 strain LAV-Vbu3, MOI 0.01, MTT, 5 days): 4.29 |
